Results reported in US20240360153A1 (Regeneron Pharmaceuticals, Inc., priority 2023, published 2024).

Experiments:
[1] = system: S6K1 (Thr389) phosphorylation (mTORC1 activity) in wild-type (WT) 293T cells; test: Inhibition of S6K1 (Thr389) phosphorylation in wild-type 293T cells (ELISA); type: cell-based, human; settings: for IC50: Homo sapiens, HEK-293T, 2 h, wild-type 293T cells, 2 hours treatment; for fold lower potency compared with RAD001 (by IC50) / extent of inhibition of S6K1 (Thr389) phosphorylation: wild-type cells; for extent of inhibition of S6K1 (Thr389) phosphorylation: with increasing concentrations
Method: (§1) Treatment of wild-type (WT) and FKBP12 knock-out 293T cells with RAD001 (everolimus) and test compounds. WT and FKBP12 knock-out 293T cells were cultured in Dulbecco's modified Eagle's medium (Gibco #11971-025) supplemented with 10% fetal bovine serum (Gibco #26140-079). Cells were plated at a density of 15,000 cells per well in poly-D-Lysine coated 96-well plates (Corning, #354461) and were incubated at 37° C., 5% CO2 for 24 hours until they reached ˜80% confluence. Cells were treated with RAD001 or test compounds reconstituted in dimethyl sulfoxide (DMSO) using a 8-11-point dose range, from 0.001 pM to 10 μM. All treatments were performed in duplicates for 2 hours at 37° C. Cell culture media supplemented with blank dimethyl sulfoxide (DMSO) was used as a negative control for all compounds. Phosphorylated amounts of S6K1 (Thr389) were measured using an ELISA kit (Invitrogen 85-86052-11), following the manufacture's protocol.
(§2) S6K1 is an immediate downstream target of mTORC1 and therefore phosphorylation of S6K1 at Thr389 residue is used to measure mTORC1 activity (PMID: 16968213). Amounts of phosphorylated S6K1 (Thr389) were measured in WT and FKBP12 knock-out 293T cells treated with either RAD001 or Compound 44 (FIGS. 1A and 1B), and Compound 45 (FIGS. 1C and 1D).

[2] = system: S6K1 (Thr389) phosphorylation (mTORC1 activity) in FKBP12 knock-out 293T cells; test: Inhibition of S6K1 (Thr389) phosphorylation in FKBP12 knock-out 293T cells (ELISA); type: cell-based, human; settings: for inhibition at 10 µM: Homo sapiens, HEK-293T, 10 μM (highest tested concentration); for inhibition at 10 µM / inhibition of S6K1 (Thr389) phosphorylation in the absence of FKBP12 (in words): FKBP12 knock-out cells; for selectivity for FKBP12 compared with RAD001 (in words): wild-type versus FKBP12 knock-out cells
Text: Example Generation of FKBP 12 knock-out cells. A CRISPR/Cas9 system was used to deliver ribonucleoprotein complexes containing guide RNA sequences that target FKBP12 (ac[…], location 1369062; ccactactcac[…], location 1369181) in HEK293T cells using Lipofectamine CRISPRMAX transfection reagent (Invitrogen CMAX00008). Cell clones were screened by immunoblotting with anti-FKBP-specific antibody (Novus, NB300-508). Single cells that were deficient for FKBP12 protein were selected and cloned.
as §1, §2

[3] = In vitro microsomal metabolic stability, CD-1 mouse liver microsomes; type: in vitro ADME; settings: for Remaining (T = 60 min): with NADPH; for Remaining (T = NCF60 min): without NADPH regenerating system; for Remaining (T = 60 min) / Remaining (T = NCF60 min): 60 min
Method: (§3) Buffers: PBK Buffer: 50 mM potassium phosphate buffer (PPB), pH 7.2, with 3.3 mM Magnesium Chloride.
(§4) TA Intermediate solution: Compound or control (3 μL) diluted from stock solution (10 mM) with 297 μL 90.0% methanol/water. (Conc: 100 μM; 1.0% DMSO, 89.1% MeOH).
(§5) Control cocktail intermediate solution: Each control (3 μL) was diluted with 291 μL 90.0% methanol/water.
(§6) Diluted TA intermediate stock solution and PC control stock were made by transferring 80 μL of 100 μM TA stock solution into new tubes and then adding 720 μL of 1.0% DMSO in 50 mM potassium phosphate buffer (conc. 10 μM; 1.0% DMSO, 8.91% MeOH).
(§7) Preparation of Liver microsomes working solution (1.25×)(final Conc.: 0.5 mg/mL).
(§8) Acetonitrile:methanol (9:1, v/v)(including 200 ng/mL tolbutamide and 200 ng/ml labetalol hydrochloride as internal standards).
(§9) Working solution: Intermediate solution (80 μL) was diluted with 720 μL 1.0% DMSO in 50 mM potassium phosphate buffer (Conc.: 10 μM; 1.0% DMSO, 8.91% MeOH)
(§10) Procedure: Stock solution was added to each of the time point plates. Microsomes solution (360 μL/well), TA/PC (45 μL/well), and NADPH (45 μL/well) min. (Conc: 1.0 μM, 0.10% DMSO, 0.891% MeOH) were added to the incubation plates. To the T60 and NCF60 plate, TA (15 ul/well) and Microsomes (120 ul) were added. To the blank plate, microsome (50 ul/well) with stop solution (150 ul/well) were added. At the end of each time point, 50 ul/well was aliquoted from the incubation plate. The sampling plates were shaken for approximately 10 min. on a shaker and the samples were centrifuged at 4000 rpm for 15 min. Supernatant (120 μL) was transferred for LC/MS/MS.Compounds from Table 3 were incubated at 37° C. with liver microsomes (pooled from multiple donors) at 1 μM in the presence of a NADPH regenerating system at 0.5 mg/ml microsomal protein. Positive controls included testosterone (3A4 substrate), propafenone (2D6) and diclofenac (2C9), which were incubated with microsomes in the presence of an NADPH regenerating system. At time points (0, 5, 10, 20, 30 and 60 minutes), samples were removed and immediately mixed with cold acetonitrile containing the internal standard (IS). Test compounds incubated with microsomes without the NADPH regenerating system for 60 min are also included. A single point for each test condition (n=1) was obtained, and samples were analyzed by LC/MS/MS. Disappearance of the test compound was assessed based on peak area ratios of analyte/IS (no standard curve).

[4] = In vitro microsomal metabolic stability, human liver microsomes; type: in vitro ADME; settings: for Remaining (T = 60 min): with NADPH; for Remaining (T = NCF60 min): without NADPH regenerating system; for Remaining (T = 60 min) / Remaining (T = NCF60 min): 60 min
Method: as §3, §4, §5, §6, §7, §8, §9, §10

[5] = CD-1, mouse, mouse liver microsomes, pH 7.2
[6] = human, human liver microsomes, pH 7.2
[7] = Mouse liver microsomes, 1 μM, 0.5 mg/ml protein, NADPH

Compound | IC50 [1] [nM] | fold lower potency compared with RAD001 (by IC50) [1] [fold] | extent of inhibition of S6K1 (Thr389) phosphorylation [1] | inhibition at 10 µM [2] [%] | inhibition of S6K1 (Thr389) phosphorylation in the absence of FKBP12 (in words) [2] | Remaining (T = 60 min) ([3]; Mouse liver microsomes) [%] | Remaining (T = NCF60 min) ([3]; Mouse liver microsomes) [%] | also measured
CO[C@@H]1C[C@H](C[C@@H](C)[C@@H]2CC[C@H](C)/C=C(\C)[C@@H](O)[C@@H](OC)C(=O)[C@H](C)C[C@H](C)/C=C/C=C/C=C(\C)C(N(C)c3ccccc3)C[C@@H]3CC[C@@H](C)[C@@](O)(O3)C(=O)C(=O)N3CCCCC3C(=O)O2)CC[C@H]1O (stereo partly drawn) [Compound 63, (3S,6S,7E,9R,10R,12R,14S,15E,17E,19E,23S,26R,27R,34aS)-9,27-dihydroxy-3-((R)-1-((1S,3R,4R)-4-hydroxy-3-methoxycyclohexyl)propan-2-yl)-10-methoxy-6,8,12,14,20,26-hexamethyl-21-(methyl(phenyl)amino)-5,6,9,10,12,13,14,21,22,23,24,25,26,27,32,33,34,34a-octadecahydro-3H-23,27-epoxypyrido[2,1-c][1]oxa[4]azacyclohentriacontine-1,11,28,29(4H,31H)-tetraone] | 2.43 | 10 | near complete inhibition | 17 | – | – | – | selectivity for FKBP12 compared with RAD001 (in words) [2]: more selective than RAD001
COC1C(=O)[C@H](C)C[C@H](C)/C=C/C=C/C=C(\C)C(NS(=O)(=O)c2cccc(C)c2)C[C@@H]2CC[C@@H](C)[C@@](O)(O2)C(=O)C(=O)N2CCCC[C@H]2C(=O)OC([C@H](C)CC2CC[C@@H](O)C(OC)C2)CC[C@H](C)/C=C(\C)C1O (stereo partly drawn) [Compound 72, N-((3S,6S,7E,9R,10R,12R,14S,15E, 17E,19E,23S,26R,27R,34aS)-9,27-dihydroxy-3-((R)-1-((1S,3R,4R)-4-hydroxy-3-methoxycyclohexyl)propan-2-yl)-10-methoxy-6,8,12,14,20,26-hexamethyl-1,11,28,29-tetraoxo-1,4,5,6,9,10,11,12,13,14,21,22,23,24,25,26,27,28,29,31,32,33,34,34a-tetracosahydro-3H-23,27-epoxypyrido[2,1-c][1]oxa[4]azacyclohentriacontin-21-yl)-3-methylbenzenesulfonamide] | 0.914 | 5.2 | near complete inhibition | 40 | inhibited S6K1 (Thr389)phosphorylation in a dose dependent manner | – | – | –
COc1ccc(NC2C[C@@H]3CC[C@@H](C)[C@@](O)(O3)C(=O)C(=O)N3CCCCC3C(=O)O[C@H]([C@H](C)C[C@@H]3CC[C@@H](O)[C@H](OC)C3)CC[C@H](C)/C=C(\C)[C@@H](O)[C@@H](OC)C(=O)[C@H](C)C[C@H](C)/C=C/C=C/C=C/2C)cc1 (stereo partly drawn) [Compound 47, (3S,6S,7E,9R,10R,12R,14S,15E,17E,19E,23S,26R,27R,34aS)-9,27-dihydroxy-3-((R)-1-((1S,3R,4R)-4-hydroxy-3-methoxycyclohexyl)propan-2-yl)-10-methoxy-21-((4-methoxyphenyl)amino)-6,8,12,14,20,26-hexamethyl-5,6,9,10,12,13,14,21,22,23,24,25,26,27,32,33,34,34a-octadecahydro-3H-23,27-epoxypyrido[2,1-c][1]oxa[4]azacyclohentriacontine-1,11,28,29(4H,31H)-tetraone] | 69 | 219 | near complete inhibition | – | did not inhibit S6K1 (Thr389)phosphorylation at any tested concentrations | – | – | selectivity for FKBP12 compared with RAD001 (in words) [2]: relatively more selective to FKBP12 compared with RAD001
CO[C@@H]1C[C@H](C[C@@H](C)[C@@H]2CC[C@H](C)/C=C(\C)[C@@H](O)[C@@H](OC)C(=O)[C@H](C)C[C@H](C)/C=C/C=C/C=C(\C)C(NS(=O)(=O)c3ccccc3)C[C@@H]3CC[C@@H](C)[C@@](O)(O3)C(=O)C(=O)N3CCCC[C@H]3C(=O)O2)CC[C@H]1O (some centres unmarked) [Compound 16] | – | ~28 | complete inhibition | ~70 | comparable to that of RAD001 | – | – | –
CO[C@@H]1C[C@H](C[C@@H](C)[C@@H]2CC[C@H](C)/C=C(\C)[C@@H](O)[C@@H](OC)C(=O)[C@H](C)C[C@H](C)/C=C/C=C/C=C(\C)C(Nc3ccsc3)C[C@@H]3CC[C@@H](C)[C@@](O)(O3)C(=O)C(=O)N3CCCCC3C(=O)O2)CC[C@H]1O (stereo partly drawn) [Compound 60, (3S,6S,7E,9R,10R,12R,14S,15E,17E,19E,23S,26R,27R,34aS)-9,27-dihydroxy-3-((R)-1-((1S,3R,4R)-4-hydroxy-3-methoxycyclohexyl)propan-2-yl)-10-methoxy-6,8,12,14,20,26-hexamethyl-21-(thiophen-3-ylamino)-5,6,9,10,12,13,14,21,22,23,24,25,26,27,32,33,34,34a-octadecahydro-3H-23,27-epoxypyrido[2,1-c][1]oxa[4]azacyclohentriacontine-1,11,28,29(4H,31H)-tetraone] | – | – | – | – | – | 5.6 | 75 | CLint scaled at 1 µM [3, 5]: 370 mL/min/kg; microsomal CLint at 1 µM [3, 5]: 93.5 µL/min/mg; half-life at 1 µM ([3]; CD-1, pH 7.2, Mouse liver microsomes, 1 μM, 0.5 mg/ml protein, NADPH): 14.8 min; Remaining (T = 60 min) ([4]; Human liver microsomes): 6.6%; Remaining (T = NCF60 min) ([4]; Human liver microsomes): 99%; CLint scaled at 1 µM [4, 6]: 80.4 mL/min/kg; microsomal CLint at 1 µM [4, 6]: 89.3 µL/min/mg; half-life at 1 µM ([4]; pH 7.2, Human liver microsomes, 1 μM, 0.5 mg/ml protein, NADPH): 16 min
Rapamycin [reference compound] | – | – | – | – | – | 27 | 102 | CL ([3]; Mouse liver microsomes): 43.1 µL/min/mg; CLint ([3]; Mouse liver microsomes): 171 mL/min/kg; T1/2 [3, 7]: 32.1 min
CO[C@H]1C[C@@H]2CC[C@@H](C)[C@@](O)(O2)C(=O)C(=O)N2CCCC[C@H]2C(=O)O[C@H]([C@H](C)C[C@@H]2CC[C@@H](O)[C@H](OC)C2)CC[C@H](C)/C=C(\C)[C@@H](O)[C@@H](OC)C(=O)[C@H](C)C[C@H](C)/C=C/C=C/C=C/1C [32-Deoxo Rapamycin, 32-deoxorapamycin, reference compound] | – | – | – | – | – | 36 | 110 | CL ([3]; Mouse liver microsomes): 35.1 µL/min/mg; CLint ([3]; Mouse liver microsomes): 139 mL/min/kg; T1/2 [3, 7]: 39.5 min; CL ([4]; Human liver microsomes): 405 µL/min/mg; CLint ([4]; Human liver microsomes): 364 mL/min/kg; T1/2 ([4]; Human liver microsomes, 1 μM, 0.5 mg/ml protein, NADPH): 3.4 min; Remaining (T = 60 min) ([4]; Human liver microsomes): 0.00%; Remaining (T = NCF60 min) ([4]; Human liver microsomes): 96%
